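Growth conditions: 96-well plates. Treatment: test compound, 48 hours, 5 concentrations. Analysis: linear interpolation between bracketing concentrations; unreached endpoints set to highest concentration. GI50 = concentration required for 50% inhibition of growth. At the TGI there is no net growth.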
Columns and labels:
Assay in all cases: NCI tumour cell line growth inhibition, 48 h
CAKI-1 renal = test system: CAKI-1 renal
DU-145 prostate = test system: DU-145 prostate
IGROV1 ovarian = test system: IGROV1 ovarian
MOLT-4 leukemia = test system: MOLT-4 leukemia
SF-539 CNS = test system: SF-539 CNS
MDA-MB-231 breast = test system: MDA-MB-231 breast
HT29 colon = test system: HT29 colon
U251 CNS = test system: U251 CNS
OVCAR-5 ovarian = test system: OVCAR-5 ovarian
HOP-62 NSCLC = test system: HOP-62 NSCLC

Structure (SMILES) | TGI (CAKI-1 renal) [µM] | TGI (DU-145 prostate) [µM] | TGI (IGROV1 ovarian) [µM] | TGI (MOLT-4 leukemia) [µM] | TGI (SF-539 CNS) [µM] | TGI (MDA-MB-231 breast) [µM] | TGI (HT29 colon) [µM] | TGI (U251 CNS) [µM] | TGI (OVCAR-5 ovarian) [µM] | TGI (HOP-62 NSCLC) [µM] | GI50 (CAKI-1 renal) [µM] | GI50 (DU-145 prostate) [µM] | GI50 (IGROV1 ovarian) [µM] | GI50 (MOLT-4 leukemia) [µM] | GI50 (SF-539 CNS) [µM] | GI50 (MDA-MB-231 breast) [µM] | GI50 (HT29 colon) [µM] | GI50 (U251 CNS) [µM] | GI50 (OVCAR-5 ovarian) [µM] | GI50 (HOP-62 NSCLC) [µM]
CC1(C)CC(=O)C(C(c2cccc(O)c2O)C2C(=O)CC(C)(C)CC2=O)C(=O)C1 | > 100 | > 100 | > 100 | > 100 | > 100 | > 100 | > 100 | > 100 | > 100 | > 100 | – | – | – | – | – | – | – | – | – | –
O=C(/C=C/C=C/c1ccccc1)c1ccc(Nc2nc(Nc3ccccc3)nc(Nc3ccccc3)n2)cc1 | > 100 | > 100 | > 100 | 35.8 | > 100 | > 100 | > 100 | > 100 | > 100 | > 100 | 16.3 | 43.6 | 0.627 | 9.89 | 61.6 | 34.7 | > 100 | 63.7 | > 100 | > 100
COc1ccccc1CNCCCN1C(=O)c2ccc3c4c(ccc(c24)C1=O)C(=O)N(CCCNCCCCNCCCCN)C3=O | 46 | 3.95 | 9.17 | 19.5 | 5.5 | 8.17 | > 28.2 | 3.25 | 7 | 7.64 | 3.98 | 1.62 | 2.8 | 3.23 | 2.15 | 0.944 | 1.35 | 1.07 | 2.23 | 1.78
Cn1cc(C2=C(c3c4n(c5ccccc35)CC(CN)C4)C(=O)NC2=O)c2ccccc21 (stereo not given) | 9.51 | 9.53 | 9.08 | 15 | 6.24 | 9.76 | 11.8 | 5.77 | 22.1 | 11 | 3.37 | 4.02 | 3.52 | 3.4 | 2.99 | 3.78 | 3.04 | 2.61 | 7.16 | 4.56
C(=N/Nc1ncnc2nc[nH]c12)/c1ccccn1 | 2.64 | > 49.3 | 20.9 | > 100 | 5.72 | > 100 | > 100 | > 100 | > 100 | > 100 | 0.308 | 0.596 | 2.11 | 0.367 | 1.3 | 0.609 | 4.07 | 0.569 | 1.02 | 0.687
O=C(c1ccccn1)c1nnn2ccccc12 | > 100 | > 100 | > 100 | > 100 | > 100 | > 100 | > 100 | > 100 | > 100 | > 100 | – | – | – | – | – | – | – | – | – | –
C[As](C)Sc1ccnc(S[As](C)C)n1 | 22.9 | > 39.7 | > 40.8 | – | > 34.8 | 15.8 | > 39.3 | > 100 | > 48.4 | > 46.3 | 4.35 | 5.98 | 4.73 | 1.43 | 2.77 | 2.62 | 3.98 | 7.03 | 19.6 | 19
O=S(=O)(O)c1ccc(Cl)cc1.[Cd] | > 100 | > 100 | 43.2 | > 100 | 32.4 | > 100 | > 100 | > 100 | > 100 | > 100 | 36 | 67.3 | 20.9 | 79.2 | 13.7 | > 100 | > 100 | 34 | > 100 | > 100
Cc1cc(Cl)ccc1NC(=O)/C(Cl)=C(/Cl)C(=O)O | 37.6 | 61.4 | – | – | 50.9 | 47.8 | 57.7 | 38.3 | 36.2 | 47.7 | – | – | – | – | – | – | – | – | – | –
COC(=O)NNc1c([N+](=O)[O-])cnn(-c2ccccc2)c1=O | 8.24 | 16.9 | 36.2 | 2.61 | 8.22 | – | 3.81 | 4.59 | 8.23 | 14.9 | – | – | – | – | – | – | – | – | – | –
COc1ccc(/C=C2\N=C(c3ccccc3)N(c3cc(C(F)(F)F)ccc3Cl)C2=O)cc1OC | > 100 | > 100 | > 100 | 71.7 | 57 | > 100 | 63.1 | > 100 | > 100 | 51 | > 100 | 43.1 | 28.4 | 29 | 24.2 | 87 | 26.9 | 39 | > 100 | 21.1
O=C(c1ccccc1)c1ccc(Cl)c([N+](=O)[O-])c1 | 20.2 | 11.7 | 23.9 | 22.3 | 19 | 11.7 | 11.1 | 20.3 | 18.7 | 28.8 | 5.5 | 3.69 | 7.92 | 4.17 | 5.1 | 3.61 | 3.43 | 7.35 | 4.38 | 13.8
C/C(=N\Nc1ccc2ccccc2n1)c1ccccc1O | > 100 | > 100 | > 100 | > 58.5 | > 100 | > 100 | > 100 | > 100 | > 100 | > 47.9 | – | – | – | – | – | – | – | – | – | –
CCCn1cc(C2=C(c3cn(C)c4ccccc34)C(=O)NC2=O)c2ccccc21 | > 23.2 | > 22.4 | > 17 | > 17.8 | 2.8 | 16.9 | 6.16 | 5.33 | > 25 | > 18.4 | 0.937 | 1.34 | 4.03 | 2.45 | 0.689 | 3.91 | 0.783 | 1.17 | 6.76 | 1.69
CCOCCc1c(O)nc(SC)[nH]c1=O | > 100 | > 100 | > 100 | > 100 | > 100 | > 100 | > 100 | > 100 | > 100 | > 100 | > 100 | > 100 | > 100 | > 100 | > 100 | > 100 | > 100 | > 100 | > 100 | > 100
O=C1Nc2ccccc2C1(c1ccc(O)c(F)c1)c1ccc(O)c(F)c1 | 55.4 | 42.7 | 50.6 | 67 | 36.8 | 35.5 | 48.5 | 48.6 | 44.1 | 44.5 | 17.6 | 11.9 | 3.19 | 10.6 | 12.6 | 13.4 | 22.7 | 14.5 | 16.4 | 16.9
CC(C)c1ccc2c(N=Nc3ccc(S(N)(=O)=O)cc3)c(O)[nH]c2c1 | > 25 | > 25 | > 25 | > 25 | > 25 | > 25 | > 25 | > 17.4 | > 25 | 12.6 | 24.9 | 12.5 | > 15.5 | > 25 | 5.56 | 9.17 | > 25 | 5.09 | > 25 | 5.54
Fc1ccc(CNc2c3ccccc3nc3ccccc23)cc1 | 3.8 | 11.3 | 6.02 | 10.8 | 5.7 | 5.58 | 9.54 | 14.1 | 9.25 | 16.7 | 1.46 | 3.18 | 2.3 | 2.9 | 2.22 | 1.9 | 2.27 | 3.02 | 2.41 | 3.58
CCOC(=O)C1=C(N)Oc2c(sc3c(C)cccc23)C1c1ccc(Cl)cc1 (stereo not given) | 17.3 | 14.1 | 15.4 | 19.7 | 5.57 | 17.4 | 11.8 | 14.8 | 15.7 | 21.8 | 1.2 | 3.89 | 0.962 | 3.58 | 1.8 | 4.29 | 3.16 | 3.46 | 4.03 | 3.81
C=C1C(=O)O[C@H]2[C@H]1CC/C(C=Nc1ccc(C(F)(F)F)cc1N)=C\CC[C@@]1(C)O[C@@H]21 | 16.7 | 13.1 | 18.4 | 9.67 | 15.4 | 24.3 | 8.6 | 23.9 | 31.7 | 26.5 | 3.73 | 3.21 | 3.36 | 3.06 | 3.94 | 7.05 | 3.65 | 10.9 | 13.2 | 12.8
CSC(=S)N/N=C/c1ccccc1 | 89.4 | > 100 | > 100 | – | > 100 | > 100 | > 100 | > 100 | > 100 | > 100 | – | – | – | – | – | – | – | – | – | –
CC(C)(C)C(=O)OCOP(=O)(OCOC(=O)C(C)(C)C)C1CCCN(OC(=O)c2ccccc2)C1=O (stereo not given) | – | > 100 | 3.08 | 8.45 | 18.9 | 14.2 | 6.28 | 10.5 | > 100 | 18.7 | – | 2.62 | 0.657 | 1.02 | 3.72 | 0.716 | 0.529 | 0.919 | 4.1 | 1.9
CN(C)CCCNC(=O)c1cc(NC(=O)CCNC(=O)c2ccc3c(c2)C(=O)c2ccccc2C3=O)cn1C | > 100 | – | > 100 | > 100 | > 100 | > 100 | > 100 | > 100 | > 100 | > 100 | > 100 | – | > 100 | 37.4 | > 100 | > 100 | 79.8 | 27.1 | > 100 | > 100
O=C(CCCCC(=O)N/N=C\c1ccccc1Cl)N/N=C\c1ccccc1Cl | – | > 100 | > 100 | – | > 100 | 55.7 | – | 21 | > 100 | 24.6 | – | 8.33 | 8.79 | – | 16.9 | 12.5 | – | 0.757 | > 100 | 3.22
CCOC(=O)C1c2[nH]c3ccccc3c2CCN1C(=O)c1ccco1 (stereo not given) | > 10 | > 10 | > 10 | > 10 | > 10 | > 10 | > 10 | > 10 | – | > 10 | – | – | – | – | – | – | – | – | – | –
CCOC(=O)c1ccc2c(c1)[n+](=O)c(C(=O)c1ccc3ccccc3c1)c(C(F)(F)F)n2[O-] | 2.85 | 3.16 | 1.21 | – | 2.9 | 3.15 | 2.27 | 2.83 | 2.57 | 3.08 | 1.42 | 1.78 | 0.361 | – | 1.56 | 1.58 | 1.08 | 1.5 | 1.3 | 1.66
COC1OCC(OS(=O)(=O)c2ccc(C)cc2)C(OC(=O)c2ccccc2)C1OC(=O)c1ccccc1 (stereo not given) | > 100 | > 100 | > 100 | – | > 100 | > 100 | > 100 | > 100 | > 100 | > 100 | 4.21 | 19.7 | 6.4 | – | 5 | 7.02 | 3.96 | 4.72 | > 100 | 3.18
COc1c(OC(C)=O)c(OC(C)=O)cc2c1-c1ccc(OC)c(=O)cc1C(NC(C)=O)CC2 (stereo not given) | > 100 | > 100 | > 100 | > 85.8 | 0.173 | > 100 | – | 9.24 | > 100 | > 73 | – | – | – | – | – | – | – | – | – | –
CCOc1cc(C=O)c2c(ccc3ccc(OC)c(OC)c32)c1OC | > 100 | > 100 | > 100 | > 100 | – | > 100 | > 100 | > 100 | > 100 | – | – | – | – | – | – | – | – | – | – | –
O=C1CSC(=S)N1c1ccc(F)cc1F | > 100 | > 100 | > 100 | – | > 100 | > 100 | > 100 | > 100 | – | > 100 | – | – | – | – | – | – | – | – | – | –

Reference: PubChem BioAssay (NCI)
